Reference: BindingDB's records for patent US12415816 (Dana-Farber Cancer Institute, 2025)
pIC50: −log10 of the molar value.

Target: Tyrosine-protein kinase JAK2 (Homo sapiens, UniProt O60674)
Test: Biochemical Assay
Procedure: The JAK2 Z-Lyte biochemical assay was performed according to manufacturer's instructions (Life Technologies).

Sequence of Tyrosine-protein kinase JAK2 (O60674 whole entry): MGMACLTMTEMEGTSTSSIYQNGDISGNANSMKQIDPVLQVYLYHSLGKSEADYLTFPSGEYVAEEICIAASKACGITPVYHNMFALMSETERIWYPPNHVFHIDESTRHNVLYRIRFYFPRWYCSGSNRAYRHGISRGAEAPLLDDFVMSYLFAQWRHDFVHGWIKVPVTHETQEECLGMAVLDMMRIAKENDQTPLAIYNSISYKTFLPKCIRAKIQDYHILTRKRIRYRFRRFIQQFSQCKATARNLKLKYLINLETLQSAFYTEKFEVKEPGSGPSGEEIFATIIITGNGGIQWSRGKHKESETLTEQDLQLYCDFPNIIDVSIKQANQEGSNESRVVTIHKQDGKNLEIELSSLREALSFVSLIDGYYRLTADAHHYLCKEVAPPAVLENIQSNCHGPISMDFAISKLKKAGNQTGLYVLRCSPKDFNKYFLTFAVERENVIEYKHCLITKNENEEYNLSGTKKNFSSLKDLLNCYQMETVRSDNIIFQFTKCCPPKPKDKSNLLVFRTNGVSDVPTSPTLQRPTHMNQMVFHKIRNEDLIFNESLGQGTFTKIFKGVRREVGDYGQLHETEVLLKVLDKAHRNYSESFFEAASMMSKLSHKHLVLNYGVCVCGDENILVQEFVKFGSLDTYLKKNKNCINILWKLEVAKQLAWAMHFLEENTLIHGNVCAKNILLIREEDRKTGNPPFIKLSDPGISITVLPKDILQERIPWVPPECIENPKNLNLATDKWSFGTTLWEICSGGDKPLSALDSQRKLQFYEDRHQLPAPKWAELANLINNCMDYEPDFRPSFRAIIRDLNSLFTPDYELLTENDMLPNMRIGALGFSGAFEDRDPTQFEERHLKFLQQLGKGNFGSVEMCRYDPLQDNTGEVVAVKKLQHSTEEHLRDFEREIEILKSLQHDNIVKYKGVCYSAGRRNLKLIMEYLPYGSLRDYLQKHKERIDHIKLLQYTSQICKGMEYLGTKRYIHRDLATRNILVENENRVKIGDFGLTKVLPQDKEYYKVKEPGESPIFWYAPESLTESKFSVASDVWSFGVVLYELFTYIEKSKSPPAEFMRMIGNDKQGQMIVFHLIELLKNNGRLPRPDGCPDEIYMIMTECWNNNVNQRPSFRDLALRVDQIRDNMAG

SMILES: CCN1CCN(Cc2cc(NC(=O)Nc3ccc(C)c(Oc4ccc5nc(NC(=O)C6CC6)sc5n4)c3)cc(C(F)(F)F)c2)CC1 [US12415816, Compound I-18]
- pIC50: 5.84
